The results in this text go back to patent US20110306554A1, “PEPTIDE CAPABLE OF BINDING TO IMMUNOGLOBULIN” (priority 2009, published 2011).

In test [1] the test system is Monoclonal antibody cocktail-induced arthritis mice. Kind of test: Arthritis suppressing effects on arthritis-induced mice, Part 1. Format: in vivo. How it is done:
Monoclonal antibody cocktail-induced arthritis mice (BALE/c Cr Slc (SPF)) were used to examine arthritis suppressing effects of a peptide which is indicated as R5 in Example 2. Arthritis was caused by intravenous administration of 2 mg/mouse of an arthritis-inducing monoclonal antibody cocktail and three days later, intraperitoneal administration of 50 μg/mouse of Lipopolysaccharide (LPS). Peptide R5 was intraperitoneally administered at a dose of 10 mg/kg once or twice a day from the day following the LPS administration (day 4) up to day 14. Methotrexate, a positive control drug, was orally administered at a dose of 0.1 mg/kg once a day from day 4. Clinical scores of the extremities were measured on even days from day 0 up to day 14. Under anesthesia, blood was removed with heparin-containing physiological saline, and an ice-cooled, 4% solution of paraformaldehyde was continuously injected to perfusion-fix the whole body. After perfusion-fixation, the knee joints (obtained by cutting at the center of the femur and of the tibia and removing the skin and muscles) and hock joints (from the center of the tibia to the toe tips) of both hind limbs were excised and further fixed by immersion in a 4% solution of paraformaldehyde overnight (4° C.). After that, both knee joints and both hock joints were transferred into 50 mM PBS (4° C.), and then subjected to soft x-ray radiography of the hock joints in two directions (from the internal side and the upper side).
The required amount was calculated for the peptide, based on the animal weight. A peptide solution was prepared to make a concentration of 1 mg/ml in a 0.5% methyl cellulose solution, and the prepared peptide solution was cold stored.
A solution of methotrexate was prepared by weighing 1 mg of methotrexate into an agate mortar, grinding it with a pestle, and then gradually adding a 0.5% methyl cellulose solution to form a suspension and make a concentration of 0.01 mg/ml. […]
Results of examinations were expressed by mean value±standard error and analyzed using EXSAS (Version 7.1.6, Arm Systex Co., Ltd.). […]

Test [2] concerns Cy3-labeled goat anti-mouse immunoglobulin (IgG). Kind of test: Peptide array of C1q subunit 15-mers probed with Cy3-labeled immunoglobulin. Format: binding. As to conditions: peptide spots on glass array, 4° C., 12 hours, background fluorescence intensity is 2.6. The source says:
The amino acid sequences of the A, B, and C subunit chains of human C1q, are shown in SEQ ID NOs: 17 to 19, and the nucleotide sequences in SEQ ID NOs: 20 to 22. Based on each of the amino acid sequences, sequences having 15 amino acids (residues) from each subunit and shifted at intervals of three amino acids, were synthesized on a glass array as synthetic peptides (Peptide Nos. 1 to […], and 193 to 270 for the A, B, and C chains, respectively). The synthesis of each peptide was carried out at a specific location on the array, so as to prepare a peptide array which included the synthetic peptides covering the entire amino acid sequences of the subunits of C1q. The preparation of the array was outsourced to JPT Peptide Technologies GmbH.
To the peptide array was applied 330 μl of an Cy3-labeled goat anti-mouse immunoglobulin (IgG) (1 mg/ml; Zymed Laboratories) diluted 1000-fold with PBS (10 mM phosphate buffer, pH 7.0, 0.1 M NaCl), and the array was sealed and then incubated at 4° C. for 12 hours. After that, the array was washed once with methanol and then 5 times with Milli-Q water for 5 minutes each. The array slide was centrifuged and dried, and scanned with a fluorescence scanner (Agilent DNA microarray scanner; Agilent Technologies), so that fluorescence intensity was quantified at the respective peptide spots on the array using a software (Feature Extraction software; Agilent Technologies). Several spots displaying strong fluorescence intensities were detected. […] Note that in the description, the amino acids are denoted by the one-letter code known in the art.

“Also recorded” adds a separate entry of the source.

In the case of “STGKFTCKVPGLYYF (Immunoglobulin binding peptide) [R5]”, the “difference in effectiveness between once-a-day and twice-a-day administration” value in test [1] (10 mg/kg intraperitoneal) is “no significant difference”. The “degree of arthritis suppression compared with methotrexate” value in test [1] (10 mg/kg intraperitoneal vs methotrexate 0.1 mg/kg orally once a day) is given as “higher degree of arthritis suppression than that of methotrexate”. Besides, in test [1] (10 mg/kg intraperitoneal, once or twice a day, day 4 to day 14), the “arthritis suppressing effect (clinical score)” value is “exhibited arthritis suppressing effects; also recorded: arthritis was suppressed”. In addition, in test [2], the Fluorescence intensity is recorded as 65,311.
